Data: patent publication US9359589B2, “Use of at least one chelating agent introduced into the culture medium of magnetotactic bacteria in order to stimulate the growth thereof” (UNIVERSITE PIERRE ET MARIE CURIE (PARIS 6), priority 2011, dated 2016)

Key:
Format in all cases: cell-based
[1] = tested on: Magnetotactic bacteria of the Magnetospirillum magneticum species, strain AMB-1; test: Growth of magnetotactic bacteria after 7 days of culture in 1 liter of medium with chelating agent (absorption at 565 nm); settings: for absorption measured at 565 nm of bacterial suspension compared with bacteria cultured in the absence of chelating agent: 1 liter
Experimental: (§1) Magnetotactic bacteria of the Magnetospirillum magneticum species, strain AMB-1, available from ATCC under the reference ATCC No. 700274, were used.
The cells were placed in culture under microanaerobic conditions, i.e. in a culture medium which has not been degassed but which is closed and has no contact with oxygen. The bacteria were cultured at laboratory temperature (approximately 25° C.) in a liquid culture in a slighly modified MSGM medium (medium ATCC 1653), the makeup of which is described hereinafter.
For a volume of one liter, the culture medium contains 0.68 g of monobasic potassium phosphate, 0.85 g of sodium succinate, 0.57 g of sodium tartrate, 0.083 g of sodium acetate, 225 μl of resazurin at 0.2%, 0.17 g of sodium nitrate, 0.04 g of L-ascorbic acid, 2 ml of a 10 mM iron quinate solution, 10 ml of a Woolf vitamin solution and 5 ml of a Woolf mineral solution.
(§2) In order to prepare the culture medium containing the various iron-chelating agents, said agents were introduced at various concentrations into the culture medium described above (section 1.2).
(§3) In this example, the magnetotactic bacteria were cultured in the presence of various chelating agents and harvested after 7 days. The absorption and the iron oxide concentration of the magnetosome chains extracted from the bacteria were then measured.

[2] = tested on: Magnetotactic bacteria of the Magnetospirillum magneticum species, strain AMB-1; test: Magnetosome production after 7 days of culture (iron oxide concentration of extracted magnetosome chains, absorption at 480 nm)
Experimental: as §1, §2
The cells were harvested during the stationary phase.
The cells are harvested during the stationary phase by centrifugation at 4000 g for 20 minutes. The supernatant is removed and the cells are resuspended in 3 ml of deionized water.
To extract the magnetosome chains, 1 ml of cell suspension obtained as described above is again centrifuged and then resuspended in a 10 mM Tris-HCl buffer at pH 7.4, and then the cell suspension is subjected to a sonication step for 120 minutes at a power of 30 W, in order to lyze the cells and to release the magnetosome chains. Sonication periods of 60 and 180 minutes can also be used. For a sonication period of less than 60 minutes, the bacteria are not all lyzed. For a sonication period of greater than 180 minutes, the beginnings of aggregation are observed owing to the presence of individual magnetosomes which are aggregated.
After sonication, the magnetosome chain suspension is separated by placing a powerful neodynium magnet (0.1-1 T) in proximity to the tube, and the magnetic material is then recovered in the form of a pellet.
The maghemite concentration of a suspension of magnetosome chains extracted from magnetotactic bacteria was measured using the measurement of the absorption at 480 nm of this suspension. The method of calibration between the value of the absorption and the amount of maghemite is described elsewhere (PCT/EP2010/067765). These measurements were carried out in order to determine the amount of magnetosome chains produced by the magnetotactic bacteria after a given growth time. The amounts of magnetosome chains produced in the absence and in the presence of the chelating agents were then compared.
as §3

[3] = tested on: Magnetospirillum magneticum; test: Growth over time of magnetotactic bacteria in 10 ml tubes with chelating agent (absorbance, O.D. at 565 nm, D2-D9); settings: for multiplication of the bacteria during the first 4 days: first 4 days of growth; for effect on the growth of the magnetotactic bacteria (absorbance compared with cultures without the agent): 0.4-400 μM, D2 to D9, 10 ml tubes; for effect on cell growth at high concentration: 400 μM; for growth curves (fitted absorption, first 7 days) relative to bacteria cultured in the absence of the agent: all concentrations except 400 μM; for period of culture during which the effects are greatest: exponential growth phase
Experimental: Cultures of Magnetospirillum magneticum were prepared as described in example 1. The bacteria were cultured in 10 milliliter tubes. A volume of 100 microliters of culture medium was inoculated, at time “D0” (Day 0), with 0.1×10^6 bacterial cells. The cultures in suspension were placed at ambient temperature (approximately 25° C.) and the growth of the bacteria over time was monitored by measuring O.D. at the wavelength of 565 nanometers.
The following series of culture samples were prepared: • samples of control culture, comprising the bacterial cells in the culture medium free of chelating agent; • a series of culture samples containing the chelating agent rhodamine B, at increasing concentrations of 0.4 μM, 4 μM, 40 μm and 400 μM; • a series of culture samples containing the chelating agent ascorbic acid, at increasing concentrations of 0.4 μM, 4 μM, 40 μM and 400 μM; • a series of culture samples containing the chelating agent erythrosine, at increasing concentrations of 0.4 μM, 40 μM and 400 μM; • a series of culture samples containing the chelating agent folic acid, at increasing concentrations of 0.4 μM, 4 μM, 40 μM and 400 μM;
(§4) The bacteria were cultured for 12 days in a tube and the absorbance over the whole of the spectrum ranging from 400 to 700 nanometers was measured, respectively, (i) on the second day (D2) after inoculation, (ii) on the third day (D3) after inoculation, (iii) on the fourth day (D4) after inoculation, (iv) on the seventh day (D7) after inoculation, (v) on the eighth day (D8) after inoculation and (vi) on the ninth day (D9) after inoculation. The magnetic moments of various suspensions of magnetotactic bacteria deposited on blotting paper were measured on days D7, D8 and D9.

[4] = tested on: Magnetospirillum magneticum; test: Magnetic moment of suspensions of magnetotactic bacteria (SQUID, 500 Oe or 1000 Oe) on D7, D8, D9
Experimental: The magnetic moment of various suspensions of magnetotactic bacteria deposited on blotting paper, under the application of a magnetic field of 500 Oe or of 1000 Oe, was also measured. The magnetic moment was measured for 10 ml of suspension of magnetotactic bacteria harvested at various days of growth, centrifuged, and then resuspended in 100 μl of distilled water. These 100 μl containing the magnetotactic bacteria are then redeposited on nonmagnetic absorbent paper which itself is inserted into a capsule that is placed in the magnetometer in order to carry out the magnetic measurements. […]
Cultures of Magnetospirillum magneticum were prepared as described in example 1. […] The cultures in suspension were placed at ambient temperature (approximately 25° C.) and the growth of the bacteria over time was monitored by measuring O.D. at the wavelength of 565 nanometers.
as §4, with “The magnetic moments of various suspensions of magnetotactic bacteria deposited on blotting paper were measured on days D7, D8 and D9.” left out

| Compound | absorption measured at 565 nm of bacterial suspension compared with bacteria cultured in the absence of chelating agent ([1]; chelating agent 0.4 μM) | magnetosome production (iron oxide concentration) compared with the control bacteria ([2]; chelating agent 0.4 μM) | magnetosome production (iron oxide concentration) compared with the control bacteria ([2]; chelating agent 4 μM) | magnetosome production (iron oxide concentration) compared with the control bacteria ([2]; chelating agent 40 μM) | absorption measured at 565 nm of bacterial suspension compared with bacteria cultured in the absence of chelating agent ([1]; chelating agent 40 μM) | absorption measured at 565 nm of bacterial suspension compared with bacteria cultured in the absence of chelating agent ([1]; chelating agent 4 μM) | also measured |
| --- | --- | --- | --- | --- | --- | --- | --- |
| Nc1ccccc1C(=O)O [anthranilic acid] | greater | increased |  |  |  |  |  |
| NCCCC(O)(P(=O)(O)O)P(=O)(O)O [alendronate, reference compound] |  | increased | increased | increased |  |  |  |
| NC(=O)c1cccnc1 [nicotinamide] |  |  |  |  | greater |  | absorption relative to that of the control bacteria ([1]; chelating agent 40 μM): 1.5-2 times |
| hemoglobin | greater | increased | increased | increased | greater | greater | factor of increase of iron oxide production ([2]; 0.4 μM in the culture medium): 7-8; factor of increase of iron oxide production ([2]; 4 μM in the culture medium): 7-8 |
| O=C(O)CN(CCN(CC(=O)O)CC(=O)O)CC(=O)O [EDTA, ethylenediaminetetraacetic acid] | greater | increased | increased |  | greater | greater |  |
| NCCCCCC(O)(P(=O)(O)O)P(=O)(O)O [neridronate, reference compound] |  |  |  |  | greater |  |  |
| O=C(O)CC(O)(CC(=O)O)C(=O)O [citric acid] |  |  | increased | increased | greater | greater |  |
| O=S(=O)(O)CCCNC1CCCCC1 [3-[cyclohexylamino]-1-propanesulfonic acid] | greater | increased | increased | increased | greater | greater |  |
| Nc1nc2ncc(CNc3ccc(C(=O)N[C@@H](CCC(=O)O)C(=O)O)cc3)nc2c(=O)[nH]1 [folic acid] |  |  |  |  |  |  | multiplication of the bacteria during the first 4 days ([3]; 0.4 μM): multiply in greater number; growth of the bacteria during the first two days ([3]; 4 μM, first two days of growth): grow more rapidly; multiplication of the bacteria during the first 4 days ([3]; 40 μM): multiply in greater number; effect on the growth of the magnetotactic bacteria (absorbance compared with cultures without the agent) [3]: stimulates the growth |
| O=S(=O)(O)CCCN1CCOCC1 [3-(N-morpholino)propanesulfonic acid] |  | increased |  |  | greater | greater |  |
| CCN(CC)c1ccc2c(-c3ccccc3C(=O)O)c3ccc(=[N+](CC)CC)cc-3oc2c1 [rhodamine B] | greater | increased | increased | increased | greater | greater | effect on cell growth at high concentration [3]: rather unfavorable; effect on the growth of the magnetotactic bacteria (absorbance compared with cultures without the agent) [3]: stimulates the growth; growth curves (fitted absorption, first 7 days) relative to bacteria cultured in the absence of the agent [3]: above; period of culture during which the effects are greatest [3]: first six days |
| dextran |  |  |  | increased | greater |  |  |
| O=C1O[C@H]([C@@H](O)CO)C(O)=C1O [ascorbic acid] |  |  |  |  |  |  | effect on bacterial growth compared with rhodamine B [3]: similar; effect on cell growth at high concentration [3]: rather unfavorable; effect on the growth of the magnetotactic bacteria (absorbance compared with cultures without the agent) [3]: stimulates the growth; concentration giving the most pronounced effect on growth ([3]; after 4 days of culture): 0.4 µM; growth curves (fitted absorption, first 7 days) relative to bacteria cultured in the absence of the agent [3]: above; period of culture during which the effects are greatest [3]: first four days; concentration range of stimulated magnetosome production compared with rhodamine B [4]: wider concentration range |
| O=C(O)CN(CC(=O)O)Cc1cc2c(cc1O)Oc1cc(O)c(CN(CC(=O)O)CC(=O)O)cc1C21OC(=O)c2ccccc21 [calcein] |  |  | increased | increased | greater | greater |  |
| O=C1OC2(c3ccccc31)c1cc(I)c(O)c(I)c1Oc1c2cc(I)c(O)c1I [erythrosine] |  |  |  |  |  |  | absorption compared with control bacteria on day D4 ([3]; 0.4 μM): greater; absorption compared with control bacteria on day D4 ([3]; 4 μM): greater; effect on the growth of the magnetotactic bacteria (absorbance compared with cultures without the agent) [3]: stimulates the growth of the magnetotactic bacteria less than rhodamine B or ascorbic acid; absorption compared with control bacteria ([3]; the other days of culture and the other concentrations): either similar to or lower |
